Measurements reported in PubChem BioAssay (NCI).
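Test compounds were applied to cells in 96-well plates for 48 hours at 5 doses. At the TGI there is no net growth.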

Experiments:
Assay in all cases: DTP human tumour cell line panel, 48 h
HCC-2998 colon = test system: HCC-2998 colon
OVCAR-8 ovarian = test system: OVCAR-8 ovarian
DU-145 prostate = test system: DU-145 prostate
MALME-3M melanoma = test system: MALME-3M melanoma
NCI-H460 lung = test system: NCI-H460 lung
CCRF-CEM leukemia = test system: CCRF-CEM leukemia
UACC-257 melanoma = test system: UACC-257 melanoma
SF-268 CNS = test system: SF-268 CNS
T-47D breast = test system: T-47D breast
TK-10 renal = test system: TK-10 renal
MDA-MB-231 breast = test system: MDA-MB-231 breast
LOX IMVI melanoma = test system: LOX IMVI melanoma
SNB-19 CNS = test system: SNB-19 CNS
KM12 colon = test system: KM12 colon
SF-539 CNS = test system: SF-539 CNS
UO-31 renal = test system: UO-31 renal
HL-60(TB) leukemia = test system: HL-60(TB) leukemia
HS 578T breast = test system: HS 578T breast
PC-3 prostate = test system: PC-3 prostate
NCI-H23 lung = test system: NCI-H23 lung
NCI-H226 lung = test system: NCI-H226 lung
SW-620 colon = test system: SW-620 colon
SF-295 CNS = test system: SF-295 CNS
HOP-62 NSCLC = test system: HOP-62 NSCLC
SK-MEL-28 melanoma = test system: SK-MEL-28 melanoma
MCF7 breast = test system: MCF7 breast
ACHN renal = test system: ACHN renal
MDA-MB-435 = test system: MDA-MB-435
NCI-H522 lung = test system: NCI-H522 lung
BT-549 breast = test system: BT-549 breast
IGROV1 ovarian = test system: IGROV1 ovarian
HCT-116 colon = test system: HCT-116 colon
HCT-15 colon = test system: HCT-15 colon
A549 NSCLC = test system: A549 NSCLC
786-0 renal = test system: 786-0 renal
MDA-N = test system: MDA-N
EKVX NSCLC = test system: EKVX NSCLC
A498 renal = test system: A498 renal
HT29 colon = test system: HT29 colon
MOLT-4 leukemia = test system: MOLT-4 leukemia
K-562 leukemia = test system: K-562 leukemia
SK-OV-3 ovarian = test system: SK-OV-3 ovarian
SN12C renal = test system: SN12C renal
SK-MEL-5 melanoma = test system: SK-MEL-5 melanoma
SNB-75 CNS = test system: SNB-75 CNS
RPMI-8226 leukemia = test system: RPMI-8226 leukemia
UACC-62 melanoma = test system: UACC-62 melanoma
COLO 205 colon = test system: COLO 205 colon
NCI/ADR-RES ovarian = test system: NCI/ADR-RES ovarian
OVCAR-3 ovarian = test system: OVCAR-3 ovarian
OVCAR-5 ovarian = test system: OVCAR-5 ovarian
SK-MEL-2 melanoma = test system: SK-MEL-2 melanoma
U251 CNS = test system: U251 CNS
M14 melanoma = test system: M14 melanoma
RXF 393 renal = test system: RXF 393 renal
CAKI-1 renal = test system: CAKI-1 renal
OVCAR-4 ovarian = test system: OVCAR-4 ovarian
HOP-92 NSCLC = test system: HOP-92 NSCLC
SR leukemia = test system: SR leukemia

Measured: TGI

CC(C)OP(=O)(c1ccccc1)c1ccc2c(c1)OCCOCCOCCOCCO2 (configuration not stated)
not listed: NCI/ADR-RES ovarian | OVCAR-3 ovarian | OVCAR-5 ovarian | SK-MEL-2 melanoma | U251 CNS | M14 melanoma | RXF 393 renal | CAKI-1 renal | OVCAR-4 ovarian | HOP-92 NSCLC | SR leukemia
> 100 µM: all other assays above

Cc1ccc(Nc2nc(C)c(C(=O)CC(=O)C(=O)Nc3c(C)cccc3C(C)(C)C)s2)cc1
not listed: MALME-3M melanoma | SK-MEL-28 melanoma | SNB-75 CNS | SR leukemia
> 100 µM: all other assays above

CC(=O)Oc1ccc2oc(=O)cc(C)c2c1
not listed: PC-3 prostate | HCT-15 colon | SK-OV-3 ovarian | UACC-62 melanoma | OVCAR-5 ovarian
> 100 µM: all other assays above
